Laboratory results: ChEMBL document CHEMBL1201862, “PubChem BioAssay data set” (2004)
Calls of active or inactive are those of the source.

What was measured:
Cytochrome P450 1A2 = target: T1, Cytochrome P450 1A2 (Homo sapiens, UniProt P05177);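 note: PubChem cytochrome P450 panel assay, CYP1A2 panel member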
T1 sequence (P05177 whole entry): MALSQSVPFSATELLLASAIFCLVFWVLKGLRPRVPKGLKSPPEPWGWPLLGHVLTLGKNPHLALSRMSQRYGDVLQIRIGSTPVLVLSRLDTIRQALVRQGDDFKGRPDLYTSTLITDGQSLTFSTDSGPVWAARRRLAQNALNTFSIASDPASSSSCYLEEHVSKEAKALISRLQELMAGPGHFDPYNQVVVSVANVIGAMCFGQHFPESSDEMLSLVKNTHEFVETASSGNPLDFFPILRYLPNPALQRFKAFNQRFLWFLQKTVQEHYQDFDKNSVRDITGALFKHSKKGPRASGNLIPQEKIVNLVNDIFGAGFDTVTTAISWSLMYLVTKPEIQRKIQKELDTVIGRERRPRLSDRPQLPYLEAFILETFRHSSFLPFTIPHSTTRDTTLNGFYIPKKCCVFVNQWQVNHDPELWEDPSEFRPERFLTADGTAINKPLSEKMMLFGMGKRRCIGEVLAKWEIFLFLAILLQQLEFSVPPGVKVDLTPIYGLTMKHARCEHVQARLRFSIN

Protein RecA = target: T2, Protein RecA (Mycobacterium tuberculosis, UniProt P9WHJ3); assay: Fluorescence Cell-Free Homogeneous Dose Retest to Identify Inhibitors of RecA-Intein Splicing Activity. [Related pubchem assays (depositor defined):AID2097, AID2223, AID489010, AID492950]; assay type: functional
T2 sequence (P9WHJ3 whole entry): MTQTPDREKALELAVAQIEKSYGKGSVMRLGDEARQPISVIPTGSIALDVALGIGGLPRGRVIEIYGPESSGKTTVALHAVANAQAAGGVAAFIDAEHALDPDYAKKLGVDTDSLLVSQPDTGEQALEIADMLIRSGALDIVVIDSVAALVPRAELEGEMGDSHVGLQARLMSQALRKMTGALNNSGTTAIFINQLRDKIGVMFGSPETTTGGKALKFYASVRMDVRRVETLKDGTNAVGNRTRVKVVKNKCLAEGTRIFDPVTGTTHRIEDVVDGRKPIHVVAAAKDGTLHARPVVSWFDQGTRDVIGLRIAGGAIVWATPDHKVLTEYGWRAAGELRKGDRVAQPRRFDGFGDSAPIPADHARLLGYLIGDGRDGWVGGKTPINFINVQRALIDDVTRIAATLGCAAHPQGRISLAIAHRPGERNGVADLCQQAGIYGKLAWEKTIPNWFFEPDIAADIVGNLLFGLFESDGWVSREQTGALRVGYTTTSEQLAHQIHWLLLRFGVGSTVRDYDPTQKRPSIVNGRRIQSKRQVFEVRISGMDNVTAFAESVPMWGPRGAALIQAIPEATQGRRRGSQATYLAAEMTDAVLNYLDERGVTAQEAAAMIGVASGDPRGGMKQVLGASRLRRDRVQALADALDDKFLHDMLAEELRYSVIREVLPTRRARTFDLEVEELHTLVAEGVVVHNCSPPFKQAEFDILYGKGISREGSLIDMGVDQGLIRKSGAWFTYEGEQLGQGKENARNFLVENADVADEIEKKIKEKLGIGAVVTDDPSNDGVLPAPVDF

[1] = target: T3, Replicative DNA helicase DnaB (Mycobacterium tuberculosis, UniProt P9WMR3); assay: DnaB intein splicing inhibitors, dose response, biochemical, cell-free fluorescence (AID 449749); assay type: functional
T3 sequence (P9WMR3 whole entry): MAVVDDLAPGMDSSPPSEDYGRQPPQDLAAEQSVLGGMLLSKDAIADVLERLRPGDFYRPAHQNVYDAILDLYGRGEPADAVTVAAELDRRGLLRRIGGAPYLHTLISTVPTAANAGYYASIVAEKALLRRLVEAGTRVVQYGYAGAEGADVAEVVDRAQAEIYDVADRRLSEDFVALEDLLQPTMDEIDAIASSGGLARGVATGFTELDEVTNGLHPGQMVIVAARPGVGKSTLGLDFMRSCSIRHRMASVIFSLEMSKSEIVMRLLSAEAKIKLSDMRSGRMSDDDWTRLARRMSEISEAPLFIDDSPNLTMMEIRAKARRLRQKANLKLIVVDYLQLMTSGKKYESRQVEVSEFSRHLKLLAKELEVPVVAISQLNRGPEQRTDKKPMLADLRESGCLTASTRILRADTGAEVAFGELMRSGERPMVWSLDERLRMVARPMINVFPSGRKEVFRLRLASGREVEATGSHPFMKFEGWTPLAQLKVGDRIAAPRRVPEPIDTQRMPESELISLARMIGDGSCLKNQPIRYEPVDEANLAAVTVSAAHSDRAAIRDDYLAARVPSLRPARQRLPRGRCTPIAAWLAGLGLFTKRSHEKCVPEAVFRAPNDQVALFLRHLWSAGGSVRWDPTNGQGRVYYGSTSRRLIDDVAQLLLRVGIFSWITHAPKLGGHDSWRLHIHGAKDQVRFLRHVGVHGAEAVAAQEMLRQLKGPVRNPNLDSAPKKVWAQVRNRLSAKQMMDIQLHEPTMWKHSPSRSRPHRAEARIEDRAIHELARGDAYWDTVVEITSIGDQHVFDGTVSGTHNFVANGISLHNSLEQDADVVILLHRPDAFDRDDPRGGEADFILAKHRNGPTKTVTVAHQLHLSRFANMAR

Cytochrome P450 3A4 = Cytochrome P450 3A4 (Homo sapiens, UniProt P08684);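 note: CYP3A4 tested as one member of a cytochrome P450 panel screen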
Chain of Cytochrome P450 3A4 (P08684 whole entry): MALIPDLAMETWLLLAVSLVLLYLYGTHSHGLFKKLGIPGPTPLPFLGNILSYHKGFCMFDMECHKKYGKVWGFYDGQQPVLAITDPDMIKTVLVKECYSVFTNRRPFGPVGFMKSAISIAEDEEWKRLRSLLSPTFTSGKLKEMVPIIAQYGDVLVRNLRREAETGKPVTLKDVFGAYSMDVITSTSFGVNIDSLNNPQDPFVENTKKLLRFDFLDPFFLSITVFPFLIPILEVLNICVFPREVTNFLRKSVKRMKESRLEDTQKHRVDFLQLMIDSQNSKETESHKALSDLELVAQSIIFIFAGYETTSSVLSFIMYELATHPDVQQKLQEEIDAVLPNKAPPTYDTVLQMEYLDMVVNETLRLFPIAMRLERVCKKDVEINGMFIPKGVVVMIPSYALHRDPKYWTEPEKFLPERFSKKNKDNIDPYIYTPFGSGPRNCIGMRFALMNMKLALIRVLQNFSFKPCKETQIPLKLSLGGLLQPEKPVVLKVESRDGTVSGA

[2] = target: T4, Corticotropin-releasing factor receptor 2/Corticotropin-releasing factor-binding protein (Homo sapiens, UniProt P24387+Q13324); assay: activators of CRF receptor 2 with binding protein – uHTS hits, confirmation (AID 602473); assay type: functional; settings: read-out: EC50_Mean
T4 sequence (Q13324 whole entry): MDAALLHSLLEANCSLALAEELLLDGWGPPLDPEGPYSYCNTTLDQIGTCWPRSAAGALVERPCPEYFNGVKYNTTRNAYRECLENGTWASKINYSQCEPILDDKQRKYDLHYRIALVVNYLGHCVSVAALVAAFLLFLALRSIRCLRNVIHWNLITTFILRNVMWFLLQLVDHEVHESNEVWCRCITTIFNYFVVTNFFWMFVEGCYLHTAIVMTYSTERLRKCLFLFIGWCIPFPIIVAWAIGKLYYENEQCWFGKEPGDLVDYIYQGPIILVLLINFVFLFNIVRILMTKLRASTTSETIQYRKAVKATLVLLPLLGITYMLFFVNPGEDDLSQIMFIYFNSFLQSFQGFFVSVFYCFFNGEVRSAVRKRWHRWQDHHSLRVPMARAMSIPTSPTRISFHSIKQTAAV
T4 sequence (P24387 whole entry): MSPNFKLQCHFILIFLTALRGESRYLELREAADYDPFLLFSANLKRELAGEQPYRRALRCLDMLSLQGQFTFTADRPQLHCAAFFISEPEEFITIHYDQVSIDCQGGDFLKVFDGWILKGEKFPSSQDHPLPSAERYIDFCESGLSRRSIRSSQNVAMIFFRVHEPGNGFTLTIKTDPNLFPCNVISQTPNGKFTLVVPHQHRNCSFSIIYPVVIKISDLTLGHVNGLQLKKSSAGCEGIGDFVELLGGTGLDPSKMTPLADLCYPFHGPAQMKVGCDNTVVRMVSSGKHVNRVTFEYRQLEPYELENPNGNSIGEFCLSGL

Cytochrome P450 2C19 = Cytochrome P450 2C19 (Homo sapiens, UniProt P33261); assay: Cytochrome panel assay with activity outcomes. Panel member name: p450-cyp2c19 Compounds with AC50 equal or less than 10 uM are considered active; assay type: functional
Chain of Cytochrome P450 2C19 (P33261 whole entry): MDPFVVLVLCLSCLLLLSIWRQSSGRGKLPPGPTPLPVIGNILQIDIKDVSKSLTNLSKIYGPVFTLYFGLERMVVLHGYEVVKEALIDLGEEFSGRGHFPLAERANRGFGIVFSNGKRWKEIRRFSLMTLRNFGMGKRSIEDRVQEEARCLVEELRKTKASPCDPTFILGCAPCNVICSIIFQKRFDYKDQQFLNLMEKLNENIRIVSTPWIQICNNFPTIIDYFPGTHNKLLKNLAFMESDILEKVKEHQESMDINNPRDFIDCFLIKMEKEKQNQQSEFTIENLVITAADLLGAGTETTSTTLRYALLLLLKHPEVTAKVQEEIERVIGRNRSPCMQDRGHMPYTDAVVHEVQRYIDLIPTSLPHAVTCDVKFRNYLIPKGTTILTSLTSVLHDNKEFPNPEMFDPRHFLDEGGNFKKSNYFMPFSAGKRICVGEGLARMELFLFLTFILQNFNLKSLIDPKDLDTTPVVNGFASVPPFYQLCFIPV

Cytochrome P450 2D6 = Cytochrome P450 2D6 (Homo sapiens, UniProt P10635);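 note: CYP2D6 member of a cytochrome P450 panel assay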
Chain of Cytochrome P450 2D6 (P10635 whole entry): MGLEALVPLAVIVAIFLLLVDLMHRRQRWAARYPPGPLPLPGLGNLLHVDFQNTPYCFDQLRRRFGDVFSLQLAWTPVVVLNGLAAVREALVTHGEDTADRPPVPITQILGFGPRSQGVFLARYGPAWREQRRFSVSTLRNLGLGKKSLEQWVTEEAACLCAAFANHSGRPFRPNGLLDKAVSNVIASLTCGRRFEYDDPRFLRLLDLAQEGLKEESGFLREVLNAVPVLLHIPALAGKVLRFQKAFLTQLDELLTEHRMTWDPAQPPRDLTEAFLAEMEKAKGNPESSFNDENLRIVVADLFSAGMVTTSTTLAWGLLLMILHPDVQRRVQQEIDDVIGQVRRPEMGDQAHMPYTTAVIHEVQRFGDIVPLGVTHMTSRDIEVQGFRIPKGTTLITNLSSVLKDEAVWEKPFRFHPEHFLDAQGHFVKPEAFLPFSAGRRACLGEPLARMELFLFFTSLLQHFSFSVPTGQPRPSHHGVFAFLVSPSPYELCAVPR

[3] = inhibitors of intracellular T. cruzi replication, confirmation, NIH3T3 host cells, beta-gal luminescence (AID 2044); assay type: functional, cell-based;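 note: intracellular parasites grown in NIH/3T3 mouse fibroblasts as host cells; luminescent beta-galactosidase reporter signal from transgenic T. cruzi replicating inside host cells; inhibitors lower the luminescence signal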
[4] = cytotoxicity toward NIH3T3 fibroblasts, dose response, counter-screen, cell-based, ATP luminescence, mouse fibroblasts (AID 2010); assay type: functional;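 note: cells exposed to compound for about 90 hours before reading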

SMILES | AC50 (Cytochrome P450 1A2) | EC50 (Protein RecA) | AC50 [1] | other results
NS(=O)(=O)c1cc2c(cc1Cl)N[C@H](Cc1ccccc1)NS2(=O)=O | 3.16 µM (inconclusive) |  |  | 
Cc1ccc(C(=O)NC(C#N)=C(Cl)Cl)cc1 |  | 19.5 µM (active) | 27.1 µM (active) | 
CC(C)[C@@H]1[C@H]2CC[C@H](C2)[C@H]1N | 31.6 µM (inconclusive) |  |  | AC50 (Cytochrome P450 3A4): 15.8 µM (inconclusive)
N#CC1(C#N)CC(C=O)=C(N)C1(C#N)CC(=O)C12CC3CC(CC(C3)C1)C2 (stereo not drawn) |  | 10 µM (active) | > 380 µM (inactive) | 
N#Cc1ccc(CC(=O)c2ccccc2)[nH]c1=O |  |  |  | EC50 [2]: 12.2 µM (active)
c1cncc(CNc2ncn[nH]2)c1 |  |  |  | AC50 (Cytochrome P450 2C19): inconclusive
Cc1ccc2nc(Nc3ccccc3O)nc(-c3ccccc3)c2c1 |  |  |  | AC50 (Cytochrome P450 3A4): 35.5 µM (inconclusive); AC50 (Cytochrome P450 2D6): 3.55 µM (inconclusive); AC50 (Cytochrome P450 2C19; read-out: AC50): 2.24 µM (inconclusive)
CCC(CC)C(=O)Nc1c2c(nn1-c1ccc(OC)cc1)CS(=O)(=O)C2 |  |  |  | AC50 (Cytochrome P450 3A4): 25.1 µM (inconclusive); AC50 (Cytochrome P450 2C19; read-out: AC50): 35.5 µM (inconclusive)
CCOC(=O)CSCCOc1ccc(C=C2C(=O)NC(=O)NC2=O)cc1OC |  | > 380 µM (inactive) | 46.6 µM (active) | 
Cc1nn(-c2ccccc2)c2c1C(c1ccc(F)cc1F)C(C#N)=C(N)O2 (stereo not drawn) |  | 3.5 µM (active) | 7.25 µM (active) | 
COC(=O)c1ccccc1Oc1c(F)c(F)nc(N2CCOCC2)c1F | 28.2 µM (inconclusive) |  |  | AC50 (Cytochrome P450 2D6): 35.5 µM (inconclusive)
Cc1ccc(C2(c3ccc(C)c(O)c3C)CCN(C)CC2)c(C)c1O | 5.01 µM (inconclusive) |  |  | 
Cc1ccc(C2CC(c3cccs3)=NN2C(=O)CSC2=NCCS2)cc1 (stereo not drawn) |  | 6.68 µM (active) | 6.2 µM (active) | 
CCCCNC(=O)CCn1c(=S)[nH]c2cc3c(cc2c1=O)OCO3 |  |  |  | AC50 (Cytochrome P450 2C19; read-out: AC50): 3.55 µM (inconclusive)
Cn1cc(-c2nc3cnc(Oc4cccc(Cl)c4)nc3n(C3CC3)c2=O)c2ccccc21 | 12.6 µM (inconclusive) |  |  | 
C[C@@H](C(=O)O)c1ccc(C[C@@H]2CCCC2=O)cc1 |  |  |  | AC50 (Cytochrome P450 2C19): inconclusive
Cn1c(CN2CCOCC2)nnc1SCc1ccccc1 |  |  |  | AC50 (Cytochrome P450 2C19; read-out: AC50): 20 µM (inconclusive)
COc1ccc(N(C(=O)c2ccco2)S(=O)(=O)c2cccs2)cc1 |  | 32.6 µM (active) | 38.1 µM (active) | 

SMILES | AC50 (Cytochrome P450 1A2) | EC50 (Protein RecA) | AC50 [1] | other results
CCOc1ccc(CN(C)C(=O)CCl)cc1 |  | 4.09 µM (active) | > 380 µM (inactive) | 
CCN(CC)C(=O)C1=C(C)N=C(S)NC1c1cn(-c2ccccc2)nc1-c1ccc(Cl)cc1 (stereo not drawn) | 28.2 µM (inconclusive) |  |  | AC50 (Cytochrome P450 2C19; read-out: AC50): 17.8 µM (inconclusive)
CC1(C)[C@@H]2CC[C@]1(C)[C@@H](OC(=O)/C=C\c1ccccc1)C2 |  |  |  | AC50 (Cytochrome P450 2C19; read-out: AC50): 0.00398 µM (inconclusive)
Cc1cc(C(=O)CCl)c(C)n1CC1COc2ccccc2O1 (stereo not drawn) |  | 13.5 µM (active) | 21.7 µM (active) | EC50 [3]: 1.81 µM (active); EC50 [4]: 4.42 µM (active)
CN1CCN(c2ncc3nc(-c4cccs4)c(=O)n(CCC#N)c3n2)CC1 | 15.8 µM (inconclusive) |  |  | AC50 (Cytochrome P450 3A4): 31.6 µM (inconclusive)
C=CC[C@@H](C(=O)O)c1ccccc1 |  |  |  | AC50 (Cytochrome P450 2C19): inconclusive
O=C(Cc1cc(O)n[nH]1)N/N=C/c1ccccc1[N+](=O)[O-] |  | 1.73 µM (active) | 4.19 µM (active) | 
CN1CCN(c2ncc3nc(CCc4ccccc4)c(=O)n(Cc4cccs4)c3n2)CC1 |  |  |  | AC50 (Cytochrome P450 3A4): 12.6 µM (inconclusive); AC50 (Cytochrome P450 2D6): 20 µM (inconclusive); AC50 (Cytochrome P450 2C19; read-out: AC50): 39.8 µM (inconclusive)
CN1CCC(n2[nH]c(-c3ccccc3)c(Cc3ccccc3)c2=O)CC1 [BENZPIPERYLON] | 1.58 µM (inconclusive) |  |  | AC50 (Cytochrome P450 2D6): 3.16 µM (inconclusive)
O=C(Nc1cccc(F)c1)N1CC[C@@]2(CCCN(C(=O)c3ccco3)C2)C1 | 25.1 µM (inconclusive) |  |  | AC50 (Cytochrome P450 3A4): 10 µM (inconclusive)
CCOC(=O)N1C(=O)[C@](c2ccc(Cl)cc2)(C(C)C)N1C(=O)OCC |  | 3.34 µM (active) | 3.09 µM (active) | 
Cc1ccsc1/C=N/NC(=O)Cc1cc(O)[nH]n1 |  | 1.28 µM (active) | 1.68 µM (active) | 
O=C(Nc1ccccc1)N1CCCC2(CCN(S(=O)(=O)c3ccccc3)CC2)C1 | 15.8 µM (inconclusive) |  |  | AC50 (Cytochrome P450 3A4): 5.01 µM (inconclusive); AC50 (Cytochrome P450 2D6): 15.8 µM (inconclusive)
COC(=O)[C@@]1(Cc2ccccc2)[C@H]2c3cc(C(=O)N4CCCC4)n(Cc4cccc5ccccc45)c3C[C@H]2CN1C(=O)c1ccccc1 | 15.8 µM (inconclusive) |  |  | 
N#Cc1c(SCC(N)=O)nsc1SCc1ccccc1Cl | 4.47 µM (inconclusive) |  |  | AC50 (Cytochrome P450 3A4): 10 µM (inconclusive)
CCOc1cc(NC(=O)c2ccccc2[N+](=O)[O-])c(OCC)cc1NC(=O)CC(C)C |  |  |  | AC50 (Cytochrome P450 2C19; read-out: AC50): 0.0112 µM (inconclusive)
CC(C)Cn1c(N)c(S(=O)(=O)c2cccs2)c2nc3ccccc3nc21 |  | 32.9 µM (inconclusive) | > 380 µM (inactive) | 
